The results in this text go back to patent US9663454B2, “3-aryl propiolonitrile compounds for thiol labeling” (Universite de Strasbourg, priority 2013, dated 2017).

Each structure is given as a SMILES string. “Also recorded” adds a separate entry of the source. Marks after values point to notes of the source that are not given here.

Data set [1] is described as follows: Labeling of a cysteine derivative: conversion of arylpropiolonitriles 1-12 with AcCysNHBn, HPLC. Conditions: 50 μM of each reagent, 25° C., PBS pH 7.6. How it is done: To a vial containing 985 μL of PBS (1×, pH 7.6), were subsequently added 5 μL of the stock solution of benzamide (10 mM in water), 5 μL of the stock solution of arylpropiolonitrile (1-12, 10 mM in DMSO) and 5 μL of stock solution of AcCysNHBn (7 m, 10 mM in DMSO). […] Areas under the peaks of the starting materials and hydrolysis products were normalized according to the area of the peak of the internal standard.
Obtained results are summed up in table 2 below, which presents the conversion of the compounds 1-12 in 30 minutes in presence of 7m at 50 μM concentration of each reagent and 25° C. The reaction is extremely sensitive to steric hindrances induced by substituents in ortho-position to propiolonitrile group (entries 1, 5, 8-9, 4) as well as to electronic effect of the substituent: −I and −M substituents increase (entries 10 and 12), while +M substituents decrease the reactivity of the compound (entries 3 and 7).

A short description of data set [2]: Hydrolytic stability in PBS, HPLC monitoring. It counts as physicochemical. How it is done: FIG. 3a-3b: HPLC monitoring of the hydrolysis of phenylmaleimide (2) in PBS (1×, pH 7.6) at 1 mM concentration at 25° C.; the peaks correspond, from the earliest to the latest, to
[drawing 5] conversion was monitored by disappearance of the starting material (a). Pseudo first order rate constant for the reaction was determined by plotting the ln([phenylmaleimide]) versus time and analyzing by linear regression. The constant corresponds to the absolute value of determined slope (b).
FIG. 4: HPLC monitoring of hydrolytic stability of N-(4-(cyanoethynyl)phenyl)acetamide (pNHAc-APN, 11) in PBS (1×, pH 7.6) at 1 mM concentration at 25° C. Conversion was monitored by disappearance of the starting material; the peaks correspond, from the earliest to the latest, to
To a vial containing 980 μL of PBS (1×, pH 7.6), were subsequently added 10 μL of a stock solution of benzamide and 10 μL of a stock solution of electrophile (phenylmaleimide 1 or
[drawing 112] 11) to give final concentration of 1 mM (both internal standard and electrophile). Aliquots of the reaction mixture (50 μL) were analyzed by HPLC for 5 hours of hydrolysis (injection every 30 min). Areas under the peaks of the starting materials and hydrolysis products were normalized according to the area of the peak of the internal standard.

Data set [3] can be described thus: Stability of the addition product in different working solutions, HPLC. The conditions noted are these: for Conversion of “addition product” in 1 h: 100 μM, 25° C. It counts as physicochemical. How it is done:
A 100 mM stock solution of the “addition product”
[drawing 113] was prepared in DMSO and stored at −20° C. 1 μL of the stock solution was added to 999 μL of working solutions to give 100 μM final concentration of substrate. Aliquots were analyzed at 0, 30 and 60 min. Areas under peak of starting material were normalized according to the area of the peak of the internal standard (benzamide). All measurements were carried at 25° C.

Data set [4] has as its system Trastuzumab. Put plainly: Conjugation of Trastuzumab and TAMRA-SH via linker, SDS-PAGE and native ESI-MS. How it is done:
To the solution of Trastuzumab (100 uL, 10 mg/mL in 50 mM borate buffer pH 8.5) was added 1.74 uL of the solution of 18 (10 mg/mL in DMSO). After incubation for 1 h at 25° C. was added 0.69 uL of TAMRA-SH (100 mM in DMSO). The mixture was incubated at 25° C. for 16 h and the conjugate was purified by size exclusion chromatography.
The comparison experiment was carried out using 4-(N-maleimidomethyl)cyclohexanecarboxylic acid N-hydroxysuccinimide ester (SMCC) instead of 18.

For data set [5], the system named is partially reduced Trastuzumab. The data set can be described thus: Direct conjugation to partially reduced Trastuzumab, SDS-PAGE and ESI-MS. The method, then:
To the solution of Trastuzumab (100 uL, 10 mg/mL in 50 mM PBS pH 7.4 with 10 mM of EDTA) was added the solution of TCEP (10 mM in water, 1.1 or 2.2 eq.). The mixture was incubated at 37° C. for 2 h and then the solution of 58 (8.25 μL, 10 mM in DMSO) was added. The mixture was incubated at 25° C. for 16 h and the conjugate was purified by size exclusion chromatography.

The subject of data set [6] is Trastuzumab. The data set can be described thus: Rebridging of antibody fragments, SDS-PAGE in reducing conditions. Conditions: Trastuzumab reduced with 5 eq. TCEP, 15 eq. compound, 16 h at 25° C. The method, then: To the solution of Trastuzumab (100 uL, 10 mg/mL in 50 mM PBS pH 7.4 with 10 mM of EDTA) was added the solution of TCEP (10 mM in water, 5 eq.). The mixture was incubated at 37° C. for 2 h and then the solution of 33 or 34 (10 mM in DMSO, 15 eq.) was added. The resulting solution was incubated for 16 h at 25° C. and then analyzed by SDS-PAGE in reducing conditions.

The mark [7] stands for this setting: conversion of the compound in 30 minutes in presence of 7m.
Where [8] appears, read: conversion in 60 minutes in presence of 7m.

Turning to `Cc1ccccc1C#CC#N` [Compound 8, 3-(o-Tolyl)propiolonitrile], the Conversion in data set [1] (setting [7]) amounted to 10.3%.

On to `N#CC#Cc1cccc(N)c1` [Compound 6, 3-(3-Aminophenyl)propiolonitrile], for which the Conversion in data set [1] (setting [7]) is 42.0%.

As to `COc1ccccc1C#CC#N` [Compound 1, 3-(2-Methoxyphenyl)propiolonitrile], the Conversion in data set [1] (setting [7]) is 10.1%. Also, in data set [2] (PBS (1×, pH 7.6), 1 mM, 25° C.), the “kobs (pseudo first order rate constant of hydrolysis)” value was determined as 7e-05 s⁻¹. In addition, the hydrolyzed entry in data set [2] (after 1 h in buffer solution) was “approximately 25%”.

With `COc1ccc(C#CC#N)cc1` [Compound 3, 3-(4-Methoxyphenyl)propiolonitrile], the Conversion in data set [1] (setting [7]) is 14.6%.

Consider `N#CC=C(SCC(N)C(=O)NCc1ccccc1)c1ccccc1` (centres unmarked) [addition product], for which the “Conversion of “addition product” in 1 h” value is 0.7% in data set [3] (100 mM PhSH in PBS(7.4):DMSO = 80:20); 0.4% in data set [3] (1M Glutathione reduced (GSH) in PBS (7.4)); 1.8% in data set [3] (1M H2O2); 0.1% in data set [3] (1M HCl (pH = 0)); 0.5% in data set [3] (1M Imidazole in PBS (7.4)); 3.4% in data set [3] (1M NaOH (pH = 14)). For the same molecule, the “thiol exchange (in words)” value in data set [3] (1 hour with an excess of phenylthiol or glutathione) is “no exchange product could be observed; also recorded: hardly any thiol exchange is observed”. Moreover, the “stability (in words)” value in data set [3] (wide range of conditions, pH from 0 to 14) is “stable in a wide range of pH (from 0 to 14); also recorded: stable and undergoes very little degradation in a wide range of conditions”.

For `N#CC#Cc1ccccc1N` [Compound 5, 3-(2-Aminophenyl)propiolonitrile], the Conversion in data set [1] (setting [7]) is 10.8%.

In the case of `N#CC#Cc1ccc(C(=O)Oc2c(F)c(F)c(S(=O)(=O)O)c(F)c2F)cc1` [Compound 18, Sodium 4-((4-(cyanoethynyl)benzoyl)oxy)-2,3,5,6-tetrafluorobenzenesulfonate], the “level of conjugation (in words)” value in data set [4] (SDS-PAGE, Trastuzumab + TAMRA-SH, versus SMCC) is reported as “higher levels of conjugation comparing to SMCC”. Further, in data set [4] (native ESI-MS of the conjugate), the “molecules of TAMRA conjugated per antibody, in average” value is given as “one” and the “population of conjugates (in words)” value is listed as “cleaner population of conjugates”.

With `CNC(=O)c1ccc(C#CC#N)cc1` [Compound 12, 4-(Cyanoethynyl)-N-methylbenzamide], the Conversion in data set [1] (setting [7]) is recorded as 85.5%.

Consider `CN(C)c1ccc2c(-c3cc(C(=O)NCc4cn(-c5ccc(C#CC#N)cc5)nn4)ccc3C(=O)[O-])c3ccc(=[N+](C)C)cc-3oc2c1` [Compound 58, 4-(((1-(4-(cyanoethynyl)phenyl)-1H-1,2,3-triazol-4-yl)methyl)carbamoyl)-2-(6-(dimethylamino)-3-(dimethyliminio)-3H-xanthen-9-yl)benzoate], for which the “molecules conjugated per antibody, in average” value in data set [5] (ESI-MS, 2.2 eq. of TCEP) is listed as 4. The “attachment to the antibody (in words)” value in data set [5] (SDS-PAGE of the conjugates) is listed as “covalently attached to the antibody”.

Take `O=C(ON1C(=O)CCC1=O)C1CCC(CN2C(=O)C=CC2=O)CC1` (centres unmarked) [SMCC, 4-(N-maleimidomethyl)cyclohexanecarboxylic acid N-hydroxysuccinimide ester, reference compound]: in data set [4] (native ESI-MS of the conjugate), the “population of conjugates (in words)” value is reported as “complex mixture of undistinguishable species”.

`CC(=O)Nc1ccc(C#CC#N)cc1` [Compound 11, N-(4-(Cyanoethynyl)phenyl)acetamide]: the Conversion in data set [1] (setting [7]) is 52.3%. Moreover, the “hydrolysis (in words)” value is listed as “no hydrolysis could be detected; also recorded: No detectable conversion; also recorded: no detectable change in concentration” in data set [2] (PBS (1×, pH 7.6), 1 mM, 25° C., up to 5 hours of monitoring) and “no trace of hydrolyzed product could be detected” in data set [2] (after a week at room temperature).

With `COc1cccc(OC)c1C#CC#N` [Compound 4, 3-(2,6-Dimethoxyphenyl)propiolonitrile], the Conversion in data set [1] (setting [8]) is reported as 4.8%**.

Turning to `Cc1cccc(C)c1C#CC#N` [Compound 9, 3-(2,6-Dimethylphenyl)propiolonitrile], in data set [1] (setting [8]), the Conversion is recorded as 2.3%**.

For the molecule `N#CC#Cc1ccccc1[N+](=O)[O-]` [Compound 10, 3-(2-Nitrophenyl)propiolonitrile], the Conversion in data set [1] (setting [7]) amounted to 70.4%*.

As for `COc1cccc(C#CC#N)c1` [Compound 2, 3-(3-Methoxyphenyl)propiolonitrile], the Conversion in data set [1] (setting [7]) amounted to 46.8%.

For the molecule `N#CC#Cc1ccc(N)cc1` [Compound 7, 3-(4-Aminophenyl)propiolonitrile], in data set [1] (setting [7]), the Conversion came to 7.4%.

In the case of `N#CC#Cc1ccccc1C#CC#N` [Compound 33, 3,3′-(1,2-Phenylene)dipropiolonitrile], the “bridging of antibody fragments (in words)” value in data set [6] is “successfully bridged”.

In the case of `N#CC#Cc1cccc(C#CC#N)c1` [Compound 34, 3,3′-(1,3-Phenylene)dipropiolonitrile], the “bridging of antibody fragments (in words)” value in data set [6] is “successfully bridged”.
